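Exposure lasted 48 hours, with cells grown in 96-well plates and compounds tested at five concentrations. GI50: concentration for 50% inhibition of growth. TGI: total growth inhibition.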
Tests used:
Test in all cases: NCI-60 cell line screen, 48 h
NCI-H460 lung = system: NCI-H460 lung
K-562 leukemia = system: K-562 leukemia
SF-539 CNS = system: SF-539 CNS
HOP-92 NSCLC = system: HOP-92 NSCLC
ACHN renal = system: ACHN renal
MOLT-4 leukemia = system: MOLT-4 leukemia
HCC-2998 colon = system: HCC-2998 colon
T-47D breast = system: T-47D breast
MDA-MB-435 = system: MDA-MB-435
A498 renal = system: A498 renal
MALME-3M melanoma = system: MALME-3M melanoma
LOX IMVI melanoma = system: LOX IMVI melanoma
M14 melanoma = system: M14 melanoma
SW-620 colon = system: SW-620 colon
COLO 205 colon = system: COLO 205 colon
UACC-257 melanoma = system: UACC-257 melanoma
UO-31 renal = system: UO-31 renal
SK-OV-3 ovarian = system: SK-OV-3 ovarian
NCI-H23 lung = system: NCI-H23 lung
OVCAR-5 ovarian = system: OVCAR-5 ovarian
U251 CNS = system: U251 CNS
OVCAR-3 ovarian = system: OVCAR-3 ovarian
PC-3 prostate = system: PC-3 prostate
HS 578T breast = system: HS 578T breast
CAKI-1 renal = system: CAKI-1 renal
SN12C renal = system: SN12C renal
A549 NSCLC = system: A549 NSCLC
EKVX NSCLC = system: EKVX NSCLC
SK-MEL-5 melanoma = system: SK-MEL-5 melanoma
NCI-H226 lung = system: NCI-H226 lung
KM12 colon = system: KM12 colon
SF-268 CNS = system: SF-268 CNS
MDA-MB-231 breast = system: MDA-MB-231 breast
HCT-116 colon = system: HCT-116 colon
SR leukemia = system: SR leukemia
HCT-15 colon = system: HCT-15 colon
SNB-19 CNS = system: SNB-19 CNS
SK-MEL-2 melanoma = system: SK-MEL-2 melanoma
UACC-62 melanoma = system: UACC-62 melanoma
OVCAR-8 ovarian = system: OVCAR-8 ovarian
786-0 renal = system: 786-0 renal
HL-60(TB) leukemia = system: HL-60(TB) leukemia
IGROV1 ovarian = system: IGROV1 ovarian
MDA-MB-468 breast = system: MDA-MB-468 breast
NCI-H522 lung = system: NCI-H522 lung
SF-295 CNS = system: SF-295 CNS
HT29 colon = system: HT29 colon
OVCAR-4 ovarian = system: OVCAR-4 ovarian
SK-MEL-28 melanoma = system: SK-MEL-28 melanoma
MCF7 breast = system: MCF7 breast
RXF 393 renal = system: RXF 393 renal
RPMI-8226 leukemia = system: RPMI-8226 leukemia
CCRF-CEM leukemia = system: CCRF-CEM leukemia
TK-10 renal = system: TK-10 renal
BT-549 breast = system: BT-549 breast
DU-145 prostate = system: DU-145 prostate
SNB-75 CNS = system: SNB-75 CNS
HOP-62 NSCLC = system: HOP-62 NSCLC

O=C1NC(=NC23CC4CC(CC(C4)C2)C3)N/C1=C\c1ccc2ncccc2c1
GI50 (NCI-H460 lung): 3.38 µM | TGI (NCI-H460 lung): 15.2 µM | GI50 (K-562 leukemia): 3.08 µM | TGI (K-562 leukemia): > 100 µM | GI50 (SF-539 CNS): 1.18 µM | TGI (SF-539 CNS): > 100 µM | GI50 (HOP-92 NSCLC): 25.9 µM | TGI (HOP-92 NSCLC): > 100 µM | GI50 (ACHN renal): 4.09 µM | TGI (ACHN renal): 26.2 µM | GI50 (MOLT-4 leukemia): 3.95 µM | TGI (MOLT-4 leukemia): 26 µM | GI50 (HCC-2998 colon): 7.5 µM | TGI (HCC-2998 colon): > 100 µM | GI50 (T-47D breast): 19.4 µM | TGI (T-47D breast): > 100 µM | GI50 (MDA-MB-435): 5.53 µM | TGI (MDA-MB-435): > 100 µM | GI50 (A498 renal): 1.12 µM | TGI (A498 renal): > 100 µM | GI50 (MALME-3M melanoma): 28.6 µM | TGI (MALME-3M melanoma): 94.9 µM | GI50 (LOX IMVI melanoma): 7.86 µM | TGI (LOX IMVI melanoma): 29.5 µM | GI50 (M14 melanoma): 6.07 µM | TGI (M14 melanoma): > 100 µM | GI50 (SW-620 colon): 3.95 µM | TGI (SW-620 colon): > 100 µM | GI50 (COLO 205 colon): 5.58 µM | TGI (COLO 205 colon): > 100 µM | GI50 (UACC-257 melanoma): 66.1 µM | TGI (UACC-257 melanoma): > 100 µM | GI50 (UO-31 renal): 5.03 µM | TGI (UO-31 renal): > 100 µM | GI50 (SK-OV-3 ovarian): 3.59 µM | TGI (SK-OV-3 ovarian): 35.2 µM | GI50 (NCI-H23 lung): 4.98 µM | TGI (NCI-H23 lung): > 100 µM | GI50 (OVCAR-5 ovarian): 64.4 µM | TGI (OVCAR-5 ovarian): > 100 µM | GI50 (U251 CNS): 10.2 µM | TGI (U251 CNS): 26.8 µM | GI50 (OVCAR-3 ovarian): 2.86 µM | TGI (OVCAR-3 ovarian): 29.7 µM | GI50 (PC-3 prostate): 15 µM | TGI (PC-3 prostate): 64.2 µM | GI50 (HS 578T breast): 2.9 µM | TGI (HS 578T breast): 34.3 µM | GI50 (CAKI-1 renal): 4.15 µM | TGI (CAKI-1 renal): 34.7 µM | GI50 (SN12C renal): 5.17 µM | TGI (SN12C renal): > 100 µM | GI50 (A549 NSCLC): 4.09 µM | TGI (A549 NSCLC): 18.6 µM | GI50 (EKVX NSCLC): 8.33 µM | TGI (EKVX NSCLC): > 100 µM | GI50 (SK-MEL-5 melanoma): 12.4 µM | TGI (SK-MEL-5 melanoma): > 100 µM | GI50 (NCI-H226 lung): 4.91 µM | TGI (NCI-H226 lung): 42.1 µM | GI50 (KM12 colon): 11 µM | TGI (KM12 colon): > 100 µM | GI50 (SF-268 CNS): 8.17 µM | TGI (SF-268 CNS): > 100 µM | GI50 (MDA-MB-231 breast): 16.9 µM | TGI (MDA-MB-231 breast): 64.7 µM | GI50 (HCT-116 colon): 3.41 µM | TGI (HCT-116 colon): 16 µM | GI50 (SR leukemia): 2.33 µM | TGI (SR leukemia): 12.3 µM | GI50 (HCT-15 colon): 2.8 µM | TGI (HCT-15 colon): 22.7 µM | GI50 (SNB-19 CNS): 11.7 µM | TGI (SNB-19 CNS): > 100 µM | GI50 (SK-MEL-2 melanoma): 2.35 µM | TGI (SK-MEL-2 melanoma): 10 µM | GI50 (UACC-62 melanoma): 40.2 µM | TGI (UACC-62 melanoma): > 100 µM | GI50 (OVCAR-8 ovarian): 8 µM | TGI (OVCAR-8 ovarian): 33.2 µM | GI50 (786-0 renal): 8.95 µM | TGI (786-0 renal): 45 µM | GI50 (HL-60(TB) leukemia): 3.09 µM | TGI (HL-60(TB) leukemia): 27.3 µM | GI50 (IGROV1 ovarian): 6.43 µM | TGI (IGROV1 ovarian): > 100 µM | GI50 (MDA-MB-468 breast): 2.11 µM | TGI (MDA-MB-468 breast): > 100 µM | GI50 (NCI-H522 lung): 1.97 µM | TGI (NCI-H522 lung): 30.8 µM | GI50 (SF-295 CNS): 7.56 µM | TGI (SF-295 CNS): 64.9 µM | GI50 (HT29 colon): 22.8 µM | TGI (HT29 colon): > 100 µM | GI50 (OVCAR-4 ovarian): 16.3 µM | TGI (OVCAR-4 ovarian): 80.8 µM | GI50 (SK-MEL-28 melanoma): 12.5 µM | TGI (SK-MEL-28 melanoma): > 100 µM | GI50 (MCF7 breast): 6.59 µM | TGI (MCF7 breast): > 100 µM | GI50 (RXF 393 renal): 3.45 µM | TGI (RXF 393 renal): 28.1 µM | GI50 (RPMI-8226 leukemia): 6.82 µM | TGI (RPMI-8226 leukemia): 51.2 µM | GI50 (CCRF-CEM leukemia): 3.22 µM | TGI (CCRF-CEM leukemia): 19.1 µM | GI50 (TK-10 renal): 6.87 µM | TGI (TK-10 renal): 60.7 µM | GI50 (BT-549 breast): 4.39 µM | TGI (BT-549 breast): 41.9 µM | GI50 (DU-145 prostate): 6.03 µM | TGI (DU-145 prostate): > 100 µM | GI50 (SNB-75 CNS): 0.218 µM | TGI (SNB-75 CNS): 26.6 µM | GI50 (HOP-62 NSCLC): 6.56 µM | TGI (HOP-62 NSCLC): > 100 µM
